For data set [1], the system named is Canis familiaris. Description: Antidyslipidemic activity in high-fat diet fed dog assessed as decrease in total cholesterol at 0.01 mg/kg, po administered QD for 1 week (reference value: 205 +/- 6 mg/dL). It is filed as functional, Canis lupus familiaris.
For data set [2], the system named is Canis familiaris. Description: Antidyslipidemic activity in high-fat diet fed dog assessed as decrease in total cholesterol at 0.03 mg/kg, po administered QD for 1 week (reference value: 205 +/- 6 mg/dL). It counts as functional, Canis lupus familiaris.
Data set [3] can be described thus: Agonist activity at rat PPARdelta. It counts as functional.
Data set [4] in a line: Cmax in dog at 0.3 mg/kg, po. It is filed as ADME, organism-based, Canis lupus familiaris. Set-up: dose 0.3 mg/kg, route oral. Particulars: in vivo.
The nature of data set [5]: Total clearance in rat at 1 mg/kg, po. Particulars: in vivo. It is filed as ADME, organism-based. Set-up: dose 1 mg/kg, route oral.
Data set [6] can be described thus: Total clearance in dog at 0.3 mg/kg, po. Particulars: in vivo. Set-up: dose 0.3 mg/kg, route oral. It counts as ADME, organism-based, Canis lupus familiaris.
Data set [7] deals with T1, Peroxisome proliferator-activated receptor gamma (Mus musculus, UniProt P37238).
T1 sequence (P37238 whole entry): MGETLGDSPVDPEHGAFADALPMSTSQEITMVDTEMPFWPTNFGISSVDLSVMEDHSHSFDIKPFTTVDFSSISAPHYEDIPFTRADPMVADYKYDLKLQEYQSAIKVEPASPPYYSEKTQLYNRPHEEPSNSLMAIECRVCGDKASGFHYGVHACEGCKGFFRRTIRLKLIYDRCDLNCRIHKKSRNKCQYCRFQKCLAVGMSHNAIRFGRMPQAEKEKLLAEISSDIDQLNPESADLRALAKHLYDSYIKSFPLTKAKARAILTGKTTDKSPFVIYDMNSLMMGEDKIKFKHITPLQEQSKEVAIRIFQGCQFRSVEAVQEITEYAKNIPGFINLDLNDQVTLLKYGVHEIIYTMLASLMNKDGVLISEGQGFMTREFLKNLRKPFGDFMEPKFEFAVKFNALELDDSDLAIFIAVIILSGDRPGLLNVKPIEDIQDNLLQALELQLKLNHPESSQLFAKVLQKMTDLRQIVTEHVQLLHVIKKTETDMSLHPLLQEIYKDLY
Nature of the data set: Agonist activity at mouse PPARgamma. It is filed as functional.

Data set [8] concerns the target T2, Peroxisome proliferator-activated receptor alpha (Homo sapiens, UniProt Q07869).
T2 sequence (Q07869 whole entry): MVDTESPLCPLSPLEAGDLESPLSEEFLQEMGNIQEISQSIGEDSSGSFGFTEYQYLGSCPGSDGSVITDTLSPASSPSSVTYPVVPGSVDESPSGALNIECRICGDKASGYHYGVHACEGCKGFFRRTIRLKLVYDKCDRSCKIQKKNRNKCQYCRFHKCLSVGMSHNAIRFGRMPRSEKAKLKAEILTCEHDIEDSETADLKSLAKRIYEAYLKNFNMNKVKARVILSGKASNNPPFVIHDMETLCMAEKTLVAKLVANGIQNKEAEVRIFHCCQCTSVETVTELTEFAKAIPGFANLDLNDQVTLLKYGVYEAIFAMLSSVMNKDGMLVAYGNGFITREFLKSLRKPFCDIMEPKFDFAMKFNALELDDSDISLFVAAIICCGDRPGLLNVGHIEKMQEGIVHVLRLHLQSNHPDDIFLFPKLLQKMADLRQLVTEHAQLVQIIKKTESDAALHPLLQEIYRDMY
Nature of the data set: Transactivation of human PPARalpha expressed in CHO-K1 cells. It counts as cell-based.

Data set [9] has as its system Canis familiaris. Nature of the data set: Antidyslipidemic activity in high-fat diet fed dog assessed as decrease in free fatty acid at 0.003 mg/kg, po administered QD for 1 week (reference value: 0.624 +/- 0.057 mEq/L). It is filed as functional, Canis lupus familiaris.
For data set [10], the system named is Canis familiaris. Description: Volume of distribution at steady state in dog at 0.3 mg/kg, po. It is filed as ADME, organism-based, Canis lupus familiaris. Set-up: dose 0.3 mg/kg, route oral. Particulars: in vivo.
Data set [11] in a line: Half life in rat at 1 mg/kg, po. It counts as ADME, organism-based. Set-up: dose 1 mg/kg, route oral. Particulars: in vivo.
Data set [12] deals with Canis familiaris. Description: Toxicity in high-fat diet fed dog assessed as effect on food intake at 0.01 mg/kg, po administered QD for 1 week (reference value: 3.67+/-0.09 kg). It is filed as organism-based, Canis lupus familiaris. Set-up: dose 0.01 mg/kg, route oral. Particulars: in vivo, 168 h.
Data set [13] can be described thus: Half life in dog at 0.3 mg/kg, po. It is filed as ADME, organism-based, Canis lupus familiaris. Set-up: dose 0.3 mg/kg, route oral. Particulars: in vivo.
Data set [14] addresses T3, Peroxisome proliferator-activated receptor alpha (Rattus norvegicus, UniProt P37230).
T3 sequence (P37230 whole entry): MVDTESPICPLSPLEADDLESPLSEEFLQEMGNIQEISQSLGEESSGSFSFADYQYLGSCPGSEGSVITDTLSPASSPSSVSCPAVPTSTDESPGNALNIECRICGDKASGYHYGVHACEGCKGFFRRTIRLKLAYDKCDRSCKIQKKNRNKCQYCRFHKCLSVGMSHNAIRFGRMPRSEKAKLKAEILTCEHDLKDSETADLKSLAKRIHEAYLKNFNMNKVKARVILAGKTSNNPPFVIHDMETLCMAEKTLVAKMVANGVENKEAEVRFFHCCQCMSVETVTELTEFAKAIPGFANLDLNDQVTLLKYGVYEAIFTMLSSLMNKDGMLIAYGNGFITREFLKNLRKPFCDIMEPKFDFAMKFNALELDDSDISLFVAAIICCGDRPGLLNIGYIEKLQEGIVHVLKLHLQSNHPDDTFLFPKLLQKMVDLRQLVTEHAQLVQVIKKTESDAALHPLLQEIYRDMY
Nature of the data set: Agonist activity at rat PPARalpha. It is filed as functional.

For data set [15], the target named is T4, Peroxisome proliferator-activated receptor delta (Homo sapiens, UniProt Q03181).
T4 sequence (Q03181 whole entry): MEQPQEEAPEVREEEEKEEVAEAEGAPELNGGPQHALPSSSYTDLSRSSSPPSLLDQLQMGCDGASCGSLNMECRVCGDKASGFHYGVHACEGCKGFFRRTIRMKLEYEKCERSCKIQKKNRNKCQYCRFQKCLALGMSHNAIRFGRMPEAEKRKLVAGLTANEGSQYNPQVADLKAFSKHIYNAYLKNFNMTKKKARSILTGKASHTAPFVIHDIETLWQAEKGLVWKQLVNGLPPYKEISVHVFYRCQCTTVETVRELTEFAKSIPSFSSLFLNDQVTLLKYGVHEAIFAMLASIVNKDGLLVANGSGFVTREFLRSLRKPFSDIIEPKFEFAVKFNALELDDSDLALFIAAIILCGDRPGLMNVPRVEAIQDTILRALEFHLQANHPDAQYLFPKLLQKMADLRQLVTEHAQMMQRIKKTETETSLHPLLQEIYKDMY
Description: Transactivation of human PPARdelta expressed in CHO-K1 cells. It counts as cell-based.

Data set [16] is described as follows: Oral bioavailability in dog at 0.3 mg/kg. It counts as ADME, organism-based, Canis lupus familiaris. Particulars: in vivo.
Data set [17] relates to Canis familiaris. Nature of the data set: Toxicity in high-fat diet fed dog assessed as effect on food intake at 0.03 mg/kg, po administered QD for 1 week (reference value: 3.67+/-0.09 kg). It is filed as organism-based, Canis lupus familiaris. Details: dose 0.03 mg/kg, route oral. Particulars: in vivo, 168 h.
Data set [18] in a line: Agonist activity at hamster PPARalpha. It is filed as functional, Cricetinae.
Data set [19] deals with Canis familiaris. Nature of the data set: Antidyslipidemic activity in high-fat diet fed dog assessed as decrease in serum triglyceride level at 0.01 mg/kg, po administered QD for 1 week (reference value: 98 +/- 4 mg/dL). It is filed as functional, Canis lupus familiaris.

Broadly, the EC50 is the concentration giving half of the maximal effect. A higher EC50 goes with a need for much substance. In general, Cmax refers to the peak of the concentration-time curve. What is called CL/F is clearance divided by bioavailability, as obtained after extravascular dosing. The half-life is how long it takes for the measured level to halve. Read a high half-life as slow loss. For orientation: bioavailability means dose-corrected exposure relative to a reference, in per cent.

Molecules are shown by their SMILES.

Turning to `Cc1nc(-c2ccc(Cl)cc2)sc1C(=O)N[C@H]1CCCN(c2cccc(C(=O)O)c2)C1`, the Activity in [1] turned out to be 176 mg/dL; in data set [2], 169 mg/dL; in data set [9] it was 0.607 mEq/L; in [12], 3.91 kg; in data set [17], 3.51 kg; in data set [19], 48 mg/dL. The EC50 in [3] is greater than 14 µM; in data set [7], 12 µM; in data set [8], 0.008 µM; in [14] it was 3.6 µM; in data set [15], 3 µM; in data set [18], 0.61 µM. The same compound had a Cmax in data set [4] of 295 ng/mL. The CL/F in data set [5] came to 1.53 mL/min/kg; in data set [6], 0.333 mL/min/kg. This compound also showed a Vdss in [10] of 1.66 L/kg. Also, the half-life in data set [11] was 10 h; in data set [13], 74 h. Moreover, the bioavailability in [16] worked out at 73.1%.

Source of the values: ChEMBL document CHEMBL1933028, “Discovery of cyclic amine-substituted benzoic acids as PPARα agonists” (Bioorg Med Chem Lett, 2012).
